Measured values as given in US20140066385A1, “METHOD FOR TREATING CANCER BY COMBINED USE OF DRUGS” (Astellas Pharma Inc., priority 2011, published 2014).

System: tumor tissues in human lung cancer cell line Calu-6 tumor-bearing mice
Assay: Example 8: immunochemical staining of iNOS, macrophage (F4/80) and nitrotyrosine in Calu-6 tumor tissue
Format: in vivo, nude mice
Source text: The dose of FK330 is expressed in terms of the weight of a simple substance (non-hydrate). A paclitaxel injectable preparation (paclitaxel injection liquid “Sawai”) was purchased from Sawai Pharmaceutical Co., Ltd., and was used as paclitaxel. Rat anti-mouse F4/80 antigen monoclonal antibody, rabbit anti-iNOS polyclonal antibody, and rabbit anti-nitrotyrosine antibody were respectively purchased from AbD Serotec (Oxford, UK), Santa Cruz Biotechnology, Inc. (Santa Cruz, Calif., US), and Millipore Corp. (Billerica, Mass., USA) and used.
FK330 was suspended (20 mg/mL) in a 0.5% aqueous methyl cellulose solution (0.5% MC) and orally administered. Paclitaxel was prepared with physiological saline for injection (Otsuka Pharmaceutical Group) to a concentration of 1 mg/mL at the time of use.
Human lung cancer-derived Calu-6 (HTB-56) was obtained from American Type
Culture Collection (VA, USA). The cells were cultured under the conditions of 37° C. and 5% CO2 by using RPMI1640 medium containing 10% heat-inactivated fetal bovine serum (FBS). The cells were harvested with trypsin and were suspended in PBS at 6×10^7 cells/mL, and the suspension was mixed with an equal amount of Matrigel (trade name) Basement Membrane Matrix (manufactured by Becton Dickinson Co., Bedford, Mass., USA).
Five-week old male nude mice (CAnN Cg-Foxn1nu/CrlCrlj(nu/nu)) were purchased from Charles River Laboratories Japan, Inc. (Japan, Kanagawa). The animals were raised under specific pathogen-free (SPF) conditions throughout the test period by feeding standard feedstuff and drinking water. The cultured cells were subcutaneously inoculated into the dorsal region of the nude mice at a concentration of 3×10^6 cells/0.1 mL/mouse. Nude mice which had the tumor volumes (major axis×[minor axis]^2×0.5) ranging from 136.8 mm^3 to 248.5 mm^3 were assigned by using SAS to minimize the fluctuation in the tumor volume between the groups and within the group.
Drug administration was initiated from the first day of administration (Day 0). The respective groups (n=5) were treated as follows. FK330 was orally gavaged in an amount of 5 mL/kg from Day 0 to Day 6, and paclitaxel was intravenously administered through the tail vein in an amount of 10 mL/kg from Day 0 to Day 5.
FK330 single administration group: FK330 100 mg/kg bid (200 mg/kg/day, from Day 0 to Day 6)
Paclitaxel single administration group: Paclitaxel 10 mg/kg/day (from Day 0 to Day 5)
Combined use group: FK330 100 mg/kg bid (200 mg/kg/day, from Day 0 to Day 6)+paclitaxel 10 mg/kg/day (from Day 0 to Day 5)
FK330 was orally gavaged (5 mL/kg) twice a day at an interval of 6 to 8 hours. Paclitaxel was administered by intravenous bolus injection (10 mL/kg) through the tail vein 1 to 4 hours after the administration of FK330.
On Day 6, the tumor tissues were harvested from the mice. Immersion fixation was carried out at 4° C. for 12 hours with a 4% para-formaldehyde-phosphate buffer solution (Wako Pure Chemical Industries, Ltd.). After the tissue fixation, according to the conventional method, sucrose replacement was carried out using 10%, 15% and 20% sucrose/phosphate buffer solutions in a stepwise manner at 4° C. After completion of the replacement, the cancer tissues were embedded in O.C.T. Compound (Toronto Research Chemicals, Inc., Toronto, Canada), and frozen blocks were prepared with dry ice/acetone and stored at −80° C.
Frozen sections at 5 μm thickness were prepared by a cryostat (Sakura Finetech Japan Co., Ltd.) and were air-dried. The dried frozen sections were washed with a 4% para-formaldehyde-phosphate buffer solution, and then in order to inactivate the endogenous peroxidase activity, the sections were treated for 30 minutes with 0.3% hydrogen peroxide/methanol. Mouse macrophage, iNOS and nitrotyrosine staining was carried out by the following procedure. In regard to the iNOS and nitrotyrosine staining, antigen retrieval was carried out by microwave irradiation (3 minutes/500 W) before the immunochemical staining. […]

[1] = combined use: FK330 100 mg/kg bid p.o. Day 0 to Day 6 + paclitaxel 10 mg/kg/day, Day 6
[2] = paclitaxel 10 mg/kg/day i.v. Day 0 to Day 5 alone, tumor harvested Day 6

Row | SMILES | iNOS protein expression in the tumor [1] | macrophage infiltration in the tumor [1] | nitrotyrosine production in the tumor [1] | amount of nitrotyrosine (major end-product of NO) in the tumor tissue [2] | iNOS protein expression in the tumor tissue [2] | infiltration of macrophages (F4/80) in the tumor tissue [2]
1 | O=C(/C=C/c1ccc(Cl)cc1)N[C@@H](Cc1ccccn1)C(=O)NCC(=O)N1CCC(Oc2cc(C(F)(F)F)ncn2)CC1 [FK330, N^2-[(2E)-3-(4-chlorophenyl)-2-propenoyl]-N-[2-oxo-2-(4-{[6-(trifluoromethyl)pyrimidin-4-yl]oxy}piperidin-1-yl)ethyl]-3-pyridin-2-yl-L-alaninamide] | did not affect | did not affect | suppressed | – | – | –
2 | CC(=O)O[C@H]1C(=O)[C@@]2(C)[C@H]([C@H](OC(=O)c3ccccc3)[C@]3(O)C[C@H](OC(=O)[C@H](O)[C@@H](NC(=O)c4ccccc4)c4ccccc4)C(C)=C1C3(C)C)[C@]1(OC(C)=O)CO[C@@H]1C[C@@H]2O [paclitaxel, reference compound] | – | – | – | increased | very clearly accentuated | clearly recognized
